From patent US20250154146A1, “PROTEIN DEGRADERS DEVELOPED ON BASIS OF BCL-2 FAMILY PROTEIN LIGAND COMPOUNDS AND USE THEREOF” (ShanghaiTech University, priority 2022, published 2025)
Entries after “also recorded” stand apart in the source; their conditions may differ.

How the values were obtained:
Format in all cases: cell-based
RS4;11 cells = assay: Thiazolyl blue cell proliferation assay in RS4;11 cells; conditions: Homo sapiens, RS4;11 acute lymphoblastic leukemia cells, 48 hours, read-out: IC50 (nM) for inhibiting the proliferation of RS4;11 cells
In short: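 RS4;11 cells, 3×10^4 cells/well in serum-containing RPMI-1640, treated 48 h with 7 concentrations (top 1000 nM or 100 nM, 10-fold serial dilutions). MTT added for 3 h at 37 °C, solubilised 4-6 h with SDS/isopropanol/HCl, absorbance read at 490 nm. IC50 from growth-inhibition curves; triplicates, at least three repeats.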

MV4;11 cells = assay: Thiazolyl blue cell proliferation assay in MV4;11 cells; conditions: Homo sapiens, MV4;11 myeloid monocytic leukemia cells, 48 hours, read-out: IC50 (nM) for inhibiting the proliferation of MV4;11 cells
In short: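 MV4;11 cells were seeded at 2×10^4 cells/well in serum-containing IMDM and treated with compound dilution series for 48 h. Viability was read by MTT at 490 nm after SDS/isopropanol/HCl solubilisation. IC50 values came from growth-inhibition curves, with 3 replicates and at least three repeats.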

Molt-4 cells = assay: Thiazolyl blue cell proliferation assay in Molt-4 cells; conditions: Homo sapiens, Molt-4 acute lymphocytic leukemia cells, 72 hours, read-out: IC50 (nM) for inhibiting the proliferation of Molt-4 cells
In short: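 BCL-XL-dependent Molt-4 cells at 2×10^4/well in serum-containing RPMI 1640 were exposed to compound concentration gradients for 72 h. Thiazolyl blue (MTT) was added for 3 h at 37° C, solubilised in SDS/isopropanol/HCl, and read at 490 nm. IC50 comes from growth-inhibition curves, triplicate, repeated ≥3 times.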

[1] = tested on: Hedgehog (Hh) signaling pathway; assay: Dual-luciferase reporter assay of Hedgehog activity in Light II cells; conditions: SAG stimulation, 36 h, dual-luciferase assay reporter kit, read-out: IC50 (nM) in Light II cells (inhibiting Hedgehog activity)
Protocol: Determination of the IC50 Values of Compounds Inhibiting Hedgehog Activity—Dual-Luciferase Reporter Assay:
Light II cells were NIH3T3 cell lines that stably express the Gli-luciferase and TK-renilla reporters. They were cultured with DMEM medium containing 10% (v/v) fetal bovine serum (FBS), 0.4 mg/ml G418, 0.15 mg/ml bleomycin (Zeocin), and penicillin/streptomycin at 37° C. in an incubator with 5% CO2. Light II cells in the logarithmic growth phase were seeded at a density of 2.5×10^4 cells/well in a 96-well plate. After 24h incubation, the cells were subjected to treatment with SAG with or without different concentrations of the compounds of the present disclosure for 36 h. After that, the Hedgehog activity was measured using the dual fluorescence reporter kit according to its instructions. The experiment had 3 replicates per group and was repeated at least three times.

BCL-XL protein = target: T1, BCL-XL protein (Homo sapiens, UniProt Q07817); assay: Western blot of BCL-XL protein in Molt-4 cells; conditions: 100 nM, 8 h
T1 construct: endogenous in cells; host or cells: Molt-4 (human acute lymphocytic leukemia cells)
Protocol: The BCL-XL antibody used in the experiment was purchased from Abcam Company, and the Tubulin antibody was purchased from Proteintech Company.
Molt-4 cells in logarithmic growth phase seeded at a density of 3×10^6 cells/well in a 6-well plate were subjected to treatment with the compounds of the present disclosure, and DMSO was used as the vehicle control group. After […] of treatment, the cells were harvested and washed once in PBS. Cells were placed on ice and treated with IP protein lysis buffer containing PMSF protease inhibitors. After centrifugation at 4° C. (10 k rpm, 5 min), the supernatant was collected and mixed with 4×LDS protein loading buffer at a volume ratio of 3:1. The mixture of protein supernatant with loading buffer were further added with 5% β-mercaptoethanol. After incubation in a metal bath at 95° C. for 10 minutes, the protein samples was stored at −80° C. or cooled directly on ice for protein electrophoresis using 10% homemade polyacrylamide gel as separation gel. Electrophoresis tank and other related components were purchased from Bio-rad company. The electrophoresis conditions were voltage 80 V for 45 minutes, then switch to voltage 120V for further electrophoresis for 1 hour. Then protein in gel was transferred onto PVDF membrane at an isocurrent of 300 mA in an icy water bath for one hour. Afterwards, the membrane was blocked with 5% skim milk for 1 hour at room temperature. Subsequently the membrane was incubated with primary antibody at 4° C. overnight or at room temperature for 2 h, then washed with 1×TBST buffer (sodium chloride, 150 mM, Tris, 10 mM, Tween 20, 0.1%; PH 7.4) for three times, and then added with secondary antibody and incubated at room temperature for 45 min, washed with 1×TBST buffer (sodium chloride, 150 mM, Tris, 10 mM, Tween 20, 0.1%; PH 7.4) three times, and subjected to color development. The antibody dilution ratio was determined according to the antibody instructions.
Molt-4 cells were seeded into a 6-well plate at a density of 3×10^6 cells per well. The next day, the cells were treated with the compounds of the present disclosure at a concentration of 100 nM, and the control groups were treated with DMSO and DT2216, respectively. Protein were extracted after 8 hours treatment, and BCL-XL protein expression was assessed by the western blot.

T1 sequence (Q07817 whole entry): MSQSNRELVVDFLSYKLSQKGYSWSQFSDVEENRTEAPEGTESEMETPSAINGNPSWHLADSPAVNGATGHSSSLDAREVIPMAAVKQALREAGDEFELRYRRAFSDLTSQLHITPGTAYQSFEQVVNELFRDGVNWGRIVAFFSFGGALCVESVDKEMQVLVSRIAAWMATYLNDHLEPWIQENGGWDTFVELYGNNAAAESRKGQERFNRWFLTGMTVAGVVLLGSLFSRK

| IC50 (RS4;11 cells) [nM] | IC50 (MV4;11 cells) [nM] | IC50 (Molt-4 cells) [nM] | IC50 [1] [nM] | Structure (SMILES) | BCL-XL protein expression / degradation (western blot) (BCL-XL protein) |
| --- | --- | --- | --- | --- | --- |
| < 20 | < 20 | < 10 | < 10 | CC1(C)CCC(CN2CCN(c3ccc(C(=O)NS(=O)(=O)c4ccc(NC[C@H]5CC[C@H](N6CCN(Cc7ccc8c(c7)CN(C7CCC(=O)NC7=O)C8=O)CC6)CC5)c([N+](=O)[O-])c4)c(Oc4cnc5[nH]ccc5c4)c3)CC2)=C(c2ccc(Cl)cc2)C1 (relative stereo) [BCL-03147, 2-((1H-pyrrolo[2,3-b]pyridin-5-yl)oxy)-4-(4-((4′-chloro-5,5-dimethyl-3,4,5,6-tetrahydro-[1,1′-biphenyl]-2-yl)methyl)piperazin-1-yl)-N-((4-((((trans)-4-(4-((2-(2,6-dioxopiperidin-3-yl)-1-oxoisoindolin-5-yl)methyl)piperazin-1-yl)cyclohexyl)methyl)amino)-3-nitrophenyl)sulfonyl)benzamide] | significantly reduce the expression of BCL-XL protein; also recorded: significantly degraded BCL-XL protein |
| < 20 | < 20 | < 10 | < 10 | CC1(C)CCC(CN2CCN(c3ccc(C(=O)NS(=O)(=O)c4ccc(NC[C@H]5CC[C@@H](N6CCN(Cc7ccc8c(c7)CN(C7CCC(=O)NC7=O)C8=O)CC6)CC5)c([N+](=O)[O-])c4)c(Oc4cnc5[nH]ccc5c4)c3)CC2)=C(c2ccc(Cl)cc2)C1 (relative stereo) [BCL-03148, 2-((1H-pyrrolo[2,3-b]pyridin-5-yl)oxy)-4-(4-((4′-chloro-5,5-dimethyl-3,4,5,6-tetrahydro-[1,1′-biphenyl]-2-yl)methyl)piperazin-1-yl)-N-((4-((((cis)-4-(4-((2-(2,6-dioxopiperidin-3-yl)-1-oxoisoindolin-5-yl)methyl)piperazin-1-yl)cyclohexyl)methyl)amino)-3-nitrophenyl)sulfonyl)benzamide] | significantly reduce the expression of BCL-XL protein; also recorded: significantly degraded BCL-XL protein |
| < 20 | < 20 | < 10 | < 10 | CC1(C)CCC(CN2CCN(c3ccc(C(=O)NS(=O)(=O)c4ccc(NC[C@H]5CC[C@@H](N6CCN(Cc7cc(Br)c8c(c7)C(=O)N(C7CCC(=O)NC7=O)C8)CC6)CC5)c([N+](=O)[O-])c4)c(Oc4cnc5[nH]ccc5c4)c3)CC2)=C(c2ccc(Cl)cc2)C1 (relative stereo) [BCL-03149, 2-((1H-pyrrolo[2,3-b]pyridin-5-yl)oxy)-N-((4-((((cis)-4-(4-((7-bromo-2-(2,6-dioxopiperidin-3-yl)-3-oxoisoindolin-5-yl)methyl)piperazin-1-yl)cyclohexyl)methyl)amino)-3-nitrophenyl)sulfonyl)-4-(4-((4′-chloro-5,5-dimethyl-3,4,5,6-tetrahydro-[1,1′-biphenyl]-2-yl)methyl)piperazin-1-yl)benzamide] | significantly reduce the expression of BCL-XL protein; also recorded: significantly degraded BCL-XL protein |
